Measured values reported in patent publication US6200962A, “Thionophosphate derivatives, process for their preparation and pharmaceutical compositions containing them” (priority 1994, dated 2001).

Legend:
[1] = Pro-oxidative effect: oxygen consumption with copper; conditions: for oxygen consumption: 10 mM, Cu2+ 10 mM, pH 7.2, 37 °C; for Rate of oxygen consumption: Table 1, 10 mM with Cu2+ 10 mM
Description: Oxygen consumption from solutions that contained AMTPs or other antioxidants such as cystine or ascorbic acid at 10 mM each, and copper sulfate 10 mM, was monitored by Biological Oxygen Monitor, model YSI 53.
AMTP molecules (10 mM) were incubated at pH=7.2 37° C. with Cu^2+ (10 mM). Oxygen consumption from the solution was measured with a Clark electrode (biological oxygen monitor). No oxygen consumption was observed from the solution. […] The oxygen consumption rate is referred to free radical production rate.

[2] = literature; cited from earlier work
[3] = Lipid hydroperoxides in partially oxidized SUV liposomes; conditions: 5 mM
Description: SUV liposomes were prepared from egg lecitin at 10% lipid concentration in a 50 ml HEPES buffer pH=6.9 according to already published procedures [Lichtenberg, D. and Barenholz. Y. (1988) Methods of Biochemical Analysis 33:337-462].
Lipid hydroperoxides were monitored by a modified micromolar sensitive spectroscopic method [Siddiqi, A. M. and Tappel, A. L. (1955) Chemist Analyst 44:52]. 50λ of lipids (liposomes or emulsion) were dissolved in 1 ml ethanol. 50λ of 50% potassium iodide solution were then added and the mixture was incubated for half an hour in the dark. The developed color was read in a spectrophotometer at 400 nm.
SUV Liposomes (12.5 mM) with certain degrees of oxidation were incubated with 5 mM AMTP molecules for period of 24 h. Peroxidation number (PN) was measured with potassium iodide in ethanol. AMTPs were able to decompose lipid hvdroperoxide and to reduce the peroxidation number (PN).

Human skin fibroblasts = experiment: Chromium release from fibroblasts, killing by streptolysin S and glucose oxidase; type: cell-based
Description: Human skin fibroblasts were kindly supplied by the Department for Human Genetics at Hadassa Hospital in Jerusalem. The cells were grown in D-MEM medium supplemented with glutamine, penicillin, and streptomycin and 10% fetal calf serum [Ginsburg, I. et al. (1992) Inflammation 16:519-538]. Radiolabeled cell monolayers were prepared by the addition of 10 μCi/ml of [^51 Cr]NaCrO4 (New England Nuclear) to […] of trypsinized cells grown in 75-ml tissue culture bottles. The cells were then dispensed into 24-well tissue culture plates (Nunc, Roskilde, Denmark) and grown to confluency in a CO2 incubator.
Hydrogen peroxide flux was generated by the addition of glucose oxidase (0.5 units/ml) to the tissue culture media. Streptolysin S (SLS) of Croup A Streptococci (17 hemolytic units/ml) was employed as a membrane damaging agent.
Culture monolayers were treated for 1 h with the agents listed above. The cultures were monitored periodically for changes in cell morphology. To assess cytotoxicity, the supernatant fluids were removed and centrifuged at 2000 rpm for 2 min. The solubilized radioactivity was then determined in a Contron gamma counter. The total radioactivity associated with untreated controls was solubilized by the addition of 1 ml of 1% Triton X-100. (AMTPs influence on SLS hemolytic activity and on glucose oxidase activity was also tested. No influences were observed).
Fibroblasts in culture were exposed to a synergistic killing mechanism (streptolysin S in combination with an oxidant glucose oxidase) in a D-MEM culture medium that contained 1 mg/ml of glucose (about 0.5-1 mM of H2 O2 was produced after 1 hour of incubation at 37° C.). This system caused about 60% chromium released within an hour. […] The positive controls were DMTU and catalase.

[4] = oil(mineral)/water and octanol/water partitioning; type: physicochemical; conditions: for logP: octanol/water, read-out: P (octanol/water) (converted); for P (oil/water): oil(mineral)/water
Text: The basic chemical structure of the compounds of the invention includes the group --P--N=S, which resembles the thiourea --N--C=S core, in which the central carbon atom has been replaced by a phosphorus atom, to give --N--P=S, which is the characteristic functional group the novel compounds of the invention. This functional group is based on a primary amido thionophosphate (AMTP) chemical bond. The specific compounds shown in FIG. 1, which are only representative of the numerous possible compounds, differ in their oil(mineral) /water and octanol/water partitioning: […]

[5] = Hydroxyl radical deoxyribose assay
Description: A modification of the assay described by Halliwell et al. [Halliwell, B. et al. (1987) Analyt. Biochem. 165:215-219] was developed. 2-Deoxyribose was purchased form Sigma Chemical Co. All other chemicals for the assay were purchased from BDH Chemicals Ltd. Degradation of deoxy ribose was achieved bv a mixture of Fe^2+, EDTA, ascorbic acid and H2 O2. […] The reaction mixture was incubated for 1 h at 37° C. Scavenging of hydroxyl radical was done by various concentrations of AMTP (compound C), and color was developed by reaction with thiobarbituric acid as described [Halliwell, B. et al., ibid.]
A^-1 =A0^-1 {1+K[S]×(KDR [DR])^-1 } Equation 1
where A is the absorbance in the presence of a scavenger S (AMTPs) at a concentration [S] and A0 is the absorbance in the absence of a scavenger KDR =3.1*10^9 (reaction constant between deoxyribose and OH. radical) [Ebert, M., et al. (1965) Pulse Radiolysis, Academic Press, London] and [DR]=18 mM. […] Considering the fast reaction between H2 O2 and Fe^2+ --NTA and the slow reaction rate between AMTP and hydrogen peroxide as monitored in the ^31 P experiments (FIG. 5), the light decay may be exclusively attributed to hydroxyl radical scavenging.

BSA [6] = experiment: BSA oxidation by NaOCl, fluorescence (tryptophan); conditions: NaOCl 1 mM
Description: BSA (0.5 mg/ml) in a 1 ml HEPES Buffer pH=7.2(50 mM) was incubated for 15 min with 1 mM sodium hypochlorite. Various concentrations of AMTP (compound B) were added to protect the protein. The sample was diluted in 3 ml of HEPES buffer and fluorescence was measured (lex =280 nm, lem =345 nm) in a JASCO FP-770 spectrotluorometer. Fluorescence decav was due to tryptophan and tyrosine oxidation. Alternatively, BAS (0.5 mg/ml) in HEPES buffer (1 ml) was incubated with 2,2'-azobis-(2-amidinopropane)-HCL (AAPH) (a water soluble peroxy radical initiator) (50 mM) at 37° C. for a period of 4 h. The sample was diluted with 2 ml of the buffer and fluorescence was measured [Hazell, L. and Stocker, R. (1993) Biochem. J. 290:165-172].
(§1) BSA's tryptophan oxidation and BSA's cystine oxidation were the models for protein damage by NaOCl (FIG. 11 and FIG. 12 respectively). BSA fluorescence intensity decreased following oxidative stress of NaOCI (1 mM). […] Out of the three AMTP compounds the most lipophilic (A) was best in preventing the damage and provided 94% protection on the protein.

BSA [7] = experiment: BSA's cystine oxidation by NaOCl (DTNB); conditions: NaOCl 1 mM
Description: BSA (0.5 mg/ml) in Imi HEPES buffer pH=7.2(50 mM) was incubated with sodium hypochlorite (1 mM) for 15 min. The protein was dialyzed for 2 h against 2×500 vol of HEPES buffer to remove free sodium hypochlorite. 301 DTNB 0.015 M in water was then added to the protein solution and color was measured at 420 nm. AMTPs were added to the protein sample to protect it against sodium hypochlorite [Hazell and Stocker, ibid.].
as §1

[8] = Solubility in D-MEM medium; type: physicochemical; conditions: not soluble above this concentration

## N[C@@H](CSSC[C@H](N)C(=O)O)C(=O)O [cystine]
[1]
  oxygen consumption: significant oxygen consumption
  Rate of oxygen consumption: 2.35e-06 M/min

## NC(=S)Nc1cccc2ccccc12 [α-naphthyl-thiourea]
[2]
  LD50: about 10 mg/kg

## CNC(=S)NC [DMTU, N,N'-dimethyl thiourea]
[2]
  toxicity: considered a toxic compound

## O=C1O[C@H]([C@@H](O)CO)C(O)=C1O [Ascorbic acid]
[1]
  oxygen consumption: significant oxygen consumption
  Rate of oxygen consumption: 2.87e-05 M/min

## CCOP(=S)(NCCC(=O)O)OCC [Compound C, 2-carboxyamidodiethyl thionophosphate]
[3]; first few hours of incubation
  reduction of PN, comparative: more efficient in the first few hours
Human skin fibroblasts; concentrations of up to 20 mM, compound alone
  toxic effects on the cell: did not show any toxic effects
Human skin fibroblasts; concentrations up to 10 mM, 60 min
  protection against cell killing: 50-60%
[4]
  logP: -0.357
  P (oil/water): 0.39
[5]; calculated from equation 1, 18 mM deoxyribose
  reaction rate constant with hydroxyl radicals: 1.5×10^9 M^-1 S^-1
[5]; deoxyribose degradation
  hydroxyl radical scavenging: potent hydroxyl radical scavengers

## CCCCNP(=S)(OCC)OCC [Compound A, n-butylamido diethylthioiiophosphate]
BSA [6]
  protection of BSA fluorescence: 94%
[3]; after 24 h
  reduction of PN, comparative: more effective in reducing PN
Human skin fibroblasts; Homo sapiens, Skin fibroblast, 1 h, 2 mM, read-out: protection against cell killing
  inhibition at 2000 µM: 10%
BSA [7]
  protection of BSA's cystines: strong protection
[4]
  logP: 0.788
  P (oil/water): 4.82
[8]
  solubility: ≤ 2000 µM
